Experimental data published in patent US20260049077A1, “Neurotrophic Receptor Tyrosine Kinase (NTRK) Inhibitors and Methods Using Same” (Baylor College of Medicine, priority 2022, published 2026).
Entries after “also recorded” stand apart in the source; their conditions may differ. Where two headings read alike, the source gives them in different places.

Columns and labels:
[1] = Brain uptake in mice 24 hours post-administration; assay type: in vivo, mouse
MAP3K12 = MAP3K12 (Homo sapiens (Human), UniProt Q12852); test: Promega K192 cell-based NanoBRET kinase occupancy assay
Description: (§1) Similarly, the selectivity of CDD-3031 for NTRK kinases was evaluated in a kinase occupancy assay (Promega K192 cell-based NanoBRET assay) using 192 kinases (Table 4).

NTRK2 = NTRK2 (Homo sapiens (Human), UniProt Q16620); test: as above
Description: as §1

CSNK1A1L = CSNK1A1L (Homo sapiens (Human), UniProt Q8N752); test: as above
Description: as §1

FLT3 = FLT3 (Homo sapiens (Human), UniProt P36888); test: as above
Description: as §1

STK11 = STK11 (Homo sapiens (Human), UniProt Q15831); test: as above
Description: as §1

TEK = TEK (Homo sapiens (Human), UniProt Q02763); test: as above
Description: as §1

JAK2 (V617F) = JAK2 (V617F) (Homo sapiens (Human), UniProt O60674, V617F); test: as above
Description: as §1

DYRK1A = DYRK1A (Homo sapiens (Human), UniProt Q13627); test: as above
Description: as §1

PKMYT1 = PKMYT1 (Homo sapiens (Human), UniProt Q99640); test: as above
Description: as §1

ULK2 = ULK2 (Homo sapiens (Human), UniProt Q8IYT8); test: as above
Description: as §1

ITK = ITK (Homo sapiens (Human), UniProt Q08881); test: as above
Description: as §1

MAP3K19 = MAP3K19 (Homo sapiens (Human), UniProt Q56UN5); test: as above
Description: as §1

CDKL1 = CDKL1 (Homo sapiens (Human), UniProt Q00532); test: as above
Description: as §1

PKMYT1, sequence (Q99640 whole entry): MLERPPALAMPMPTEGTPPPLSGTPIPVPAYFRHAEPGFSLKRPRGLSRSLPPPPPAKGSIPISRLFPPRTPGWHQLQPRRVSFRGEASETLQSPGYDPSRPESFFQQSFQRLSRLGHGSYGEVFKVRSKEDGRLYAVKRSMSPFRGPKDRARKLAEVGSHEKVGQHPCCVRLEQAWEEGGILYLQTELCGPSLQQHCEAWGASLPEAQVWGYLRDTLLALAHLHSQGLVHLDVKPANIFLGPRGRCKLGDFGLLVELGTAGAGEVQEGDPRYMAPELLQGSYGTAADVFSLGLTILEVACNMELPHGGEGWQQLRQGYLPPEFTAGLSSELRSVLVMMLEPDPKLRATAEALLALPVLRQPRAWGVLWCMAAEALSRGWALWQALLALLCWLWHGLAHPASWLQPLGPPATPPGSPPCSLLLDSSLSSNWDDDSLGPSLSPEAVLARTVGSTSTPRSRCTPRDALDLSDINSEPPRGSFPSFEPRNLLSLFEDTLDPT
CDKL1, sequence (Q00532 whole entry): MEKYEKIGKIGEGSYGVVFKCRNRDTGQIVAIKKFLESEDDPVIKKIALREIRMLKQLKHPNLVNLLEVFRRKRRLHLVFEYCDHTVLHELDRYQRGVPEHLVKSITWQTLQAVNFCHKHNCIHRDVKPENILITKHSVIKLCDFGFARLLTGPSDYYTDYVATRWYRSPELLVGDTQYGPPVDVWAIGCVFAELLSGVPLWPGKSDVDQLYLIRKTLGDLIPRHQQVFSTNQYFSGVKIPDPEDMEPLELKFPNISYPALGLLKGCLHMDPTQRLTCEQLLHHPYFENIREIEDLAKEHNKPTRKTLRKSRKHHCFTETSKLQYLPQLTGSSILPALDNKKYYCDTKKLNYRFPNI
ITK, sequence (Q08881 whole entry): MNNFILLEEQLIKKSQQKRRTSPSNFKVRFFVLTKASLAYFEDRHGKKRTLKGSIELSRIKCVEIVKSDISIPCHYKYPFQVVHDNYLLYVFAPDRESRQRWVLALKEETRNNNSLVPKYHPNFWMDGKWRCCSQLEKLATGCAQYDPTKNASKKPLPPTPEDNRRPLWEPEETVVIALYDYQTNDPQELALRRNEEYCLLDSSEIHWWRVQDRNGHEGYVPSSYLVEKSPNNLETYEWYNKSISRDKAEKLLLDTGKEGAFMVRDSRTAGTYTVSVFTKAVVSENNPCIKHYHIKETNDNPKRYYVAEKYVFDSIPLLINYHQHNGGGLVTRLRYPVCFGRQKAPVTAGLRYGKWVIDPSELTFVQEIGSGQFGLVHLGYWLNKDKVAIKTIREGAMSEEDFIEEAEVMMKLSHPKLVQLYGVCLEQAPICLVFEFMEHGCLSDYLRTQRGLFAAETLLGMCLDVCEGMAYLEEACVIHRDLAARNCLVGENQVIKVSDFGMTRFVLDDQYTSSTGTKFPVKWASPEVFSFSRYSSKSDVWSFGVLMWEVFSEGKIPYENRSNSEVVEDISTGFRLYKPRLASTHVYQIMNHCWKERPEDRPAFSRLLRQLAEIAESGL
ULK2, sequence (Q8IYT8 whole entry): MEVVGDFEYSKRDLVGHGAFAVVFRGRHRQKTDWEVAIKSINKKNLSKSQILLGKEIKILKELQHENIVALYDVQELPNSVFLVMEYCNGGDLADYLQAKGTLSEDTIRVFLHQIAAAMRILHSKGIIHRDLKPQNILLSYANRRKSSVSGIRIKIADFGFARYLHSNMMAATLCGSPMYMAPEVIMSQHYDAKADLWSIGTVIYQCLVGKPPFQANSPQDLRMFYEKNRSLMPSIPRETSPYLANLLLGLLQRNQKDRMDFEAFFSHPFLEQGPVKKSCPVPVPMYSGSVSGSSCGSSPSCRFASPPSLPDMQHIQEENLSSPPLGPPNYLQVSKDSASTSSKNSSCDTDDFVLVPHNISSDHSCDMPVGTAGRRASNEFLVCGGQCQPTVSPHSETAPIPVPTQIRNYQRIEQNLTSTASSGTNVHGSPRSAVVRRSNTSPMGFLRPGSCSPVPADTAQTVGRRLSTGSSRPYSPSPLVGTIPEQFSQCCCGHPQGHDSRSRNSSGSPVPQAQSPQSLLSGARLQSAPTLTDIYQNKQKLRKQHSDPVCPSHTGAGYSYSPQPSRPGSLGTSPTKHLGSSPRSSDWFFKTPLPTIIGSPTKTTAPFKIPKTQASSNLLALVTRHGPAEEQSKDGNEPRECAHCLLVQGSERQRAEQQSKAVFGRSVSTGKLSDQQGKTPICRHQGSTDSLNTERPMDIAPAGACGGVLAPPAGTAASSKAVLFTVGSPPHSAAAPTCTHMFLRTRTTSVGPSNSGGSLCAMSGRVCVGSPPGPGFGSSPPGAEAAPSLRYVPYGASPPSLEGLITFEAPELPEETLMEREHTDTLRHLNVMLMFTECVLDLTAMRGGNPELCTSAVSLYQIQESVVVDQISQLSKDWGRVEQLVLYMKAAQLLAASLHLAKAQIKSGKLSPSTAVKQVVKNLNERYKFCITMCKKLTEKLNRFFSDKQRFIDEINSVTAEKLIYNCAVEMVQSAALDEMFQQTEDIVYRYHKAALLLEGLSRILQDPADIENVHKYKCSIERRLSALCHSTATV
CSNK1A1L, sequence (Q8N752 whole entry): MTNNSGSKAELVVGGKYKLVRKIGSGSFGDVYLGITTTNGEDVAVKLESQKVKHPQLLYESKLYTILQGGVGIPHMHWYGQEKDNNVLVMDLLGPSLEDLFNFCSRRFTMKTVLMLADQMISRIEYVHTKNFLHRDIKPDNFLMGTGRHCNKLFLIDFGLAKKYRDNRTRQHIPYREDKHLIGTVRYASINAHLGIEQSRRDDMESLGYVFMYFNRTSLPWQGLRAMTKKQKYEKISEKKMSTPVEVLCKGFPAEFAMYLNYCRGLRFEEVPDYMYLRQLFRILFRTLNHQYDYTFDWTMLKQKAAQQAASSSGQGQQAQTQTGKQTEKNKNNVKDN
TEK, sequence (Q02763 23-1124): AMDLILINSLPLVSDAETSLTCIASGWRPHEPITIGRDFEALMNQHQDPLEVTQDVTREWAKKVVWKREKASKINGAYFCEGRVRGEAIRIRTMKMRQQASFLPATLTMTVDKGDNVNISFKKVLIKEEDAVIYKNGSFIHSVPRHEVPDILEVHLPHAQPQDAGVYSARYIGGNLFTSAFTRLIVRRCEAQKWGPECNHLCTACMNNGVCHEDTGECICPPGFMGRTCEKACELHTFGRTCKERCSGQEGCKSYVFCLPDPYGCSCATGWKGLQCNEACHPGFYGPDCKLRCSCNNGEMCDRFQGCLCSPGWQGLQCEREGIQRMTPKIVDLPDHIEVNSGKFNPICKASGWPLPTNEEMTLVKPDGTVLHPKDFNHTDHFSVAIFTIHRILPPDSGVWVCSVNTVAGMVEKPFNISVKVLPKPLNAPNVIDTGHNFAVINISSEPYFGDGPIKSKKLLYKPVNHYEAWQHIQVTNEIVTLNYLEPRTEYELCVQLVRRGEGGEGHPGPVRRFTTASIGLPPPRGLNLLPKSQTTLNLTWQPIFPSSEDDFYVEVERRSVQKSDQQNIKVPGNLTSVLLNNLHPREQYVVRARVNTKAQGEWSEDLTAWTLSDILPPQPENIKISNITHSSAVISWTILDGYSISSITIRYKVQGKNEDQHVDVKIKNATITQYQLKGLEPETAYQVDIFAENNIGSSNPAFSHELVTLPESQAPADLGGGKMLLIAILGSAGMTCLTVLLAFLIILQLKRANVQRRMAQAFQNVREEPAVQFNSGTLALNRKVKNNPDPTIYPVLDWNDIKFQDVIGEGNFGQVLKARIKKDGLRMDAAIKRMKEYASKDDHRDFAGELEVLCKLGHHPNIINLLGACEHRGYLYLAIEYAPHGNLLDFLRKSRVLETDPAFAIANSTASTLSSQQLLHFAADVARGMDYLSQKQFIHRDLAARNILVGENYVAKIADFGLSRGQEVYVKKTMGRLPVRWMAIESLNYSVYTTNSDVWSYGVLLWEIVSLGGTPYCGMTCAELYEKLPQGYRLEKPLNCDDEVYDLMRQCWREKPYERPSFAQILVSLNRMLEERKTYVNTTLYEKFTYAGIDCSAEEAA
NTRK2, sequence (Q16620 32-822): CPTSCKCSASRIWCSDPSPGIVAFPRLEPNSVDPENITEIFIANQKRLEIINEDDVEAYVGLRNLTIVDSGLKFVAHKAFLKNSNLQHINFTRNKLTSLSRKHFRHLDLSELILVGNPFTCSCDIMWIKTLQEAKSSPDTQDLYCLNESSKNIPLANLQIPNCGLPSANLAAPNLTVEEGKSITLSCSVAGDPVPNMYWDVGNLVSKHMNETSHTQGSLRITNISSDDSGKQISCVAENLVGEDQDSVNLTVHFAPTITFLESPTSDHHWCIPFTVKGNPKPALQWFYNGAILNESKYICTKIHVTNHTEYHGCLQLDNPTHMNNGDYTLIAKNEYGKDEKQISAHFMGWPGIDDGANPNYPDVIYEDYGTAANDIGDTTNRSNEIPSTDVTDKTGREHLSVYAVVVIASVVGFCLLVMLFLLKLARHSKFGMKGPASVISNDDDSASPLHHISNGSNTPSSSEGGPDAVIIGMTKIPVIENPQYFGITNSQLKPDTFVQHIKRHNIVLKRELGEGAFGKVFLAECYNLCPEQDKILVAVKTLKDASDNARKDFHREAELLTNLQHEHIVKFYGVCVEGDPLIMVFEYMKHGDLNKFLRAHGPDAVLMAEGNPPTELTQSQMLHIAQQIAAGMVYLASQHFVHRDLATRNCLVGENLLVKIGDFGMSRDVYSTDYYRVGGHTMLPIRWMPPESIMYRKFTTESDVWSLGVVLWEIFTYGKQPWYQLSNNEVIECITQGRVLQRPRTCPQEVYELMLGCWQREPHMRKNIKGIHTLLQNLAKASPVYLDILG

For `CN(Cc1ccn2ncc(C(N)=O)c2c1)C(=O)Nc1ccc(OC(F)(F)F)cc1` [CDD-3031, 5-((1-methyl-3-(4-(trifluoromethoxy)phenyl)ureido)methyl)pyrazolo[1,5-a]pyridine-3-carboxamide], the “brain uptake relative to controls” value ([1]; brain and plasma 24 hours post-administration) was “low brain penetration; also recorded: relatively low brain uptake compared to chlorpromazine (positive control), but a high uptake as compared to hydroxyzine (negative control)”, the concentration at 24 h ([1]; mouse, brain, 24 h, read-out: Brain Concentration at 24 h (ng/mg)) was 350 ng/g and the receptor occupancy at 1 µM (MAP3K12; average, read-out: MAP3K12 kinase occupancy, Average (%)) was 7.58%. For the same compound, the receptor occupancy at 1 µM (MAP3K12; replicate 1, read-out: MAP3K12 kinase occupancy, Replicate 1 (%)) was 21.2%, the receptor occupancy at 1 µM (MAP3K12; replicate 2, read-out: MAP3K12 kinase occupancy, Replicate 2 (%)) was -6.05% and the receptor occupancy at 1 µM (NTRK2; average, read-out: NTRK2 kinase occupancy, Average (%)) was 92.9%. The receptor occupancy at 1 µM (NTRK2; replicate 1, read-out: NTRK2 kinase occupancy, Replicate 1 (%)) was 94.6%, the receptor occupancy at 1 µM (NTRK2; replicate 2, read-out: NTRK2 kinase occupancy, Replicate 2 (%)) was 91.2% and the receptor occupancy at 1 µM (CSNK1A1L; average, read-out: CSNK1A1L kinase occupancy, Average (%)) was 4.58%. For the same compound, the receptor occupancy at 1 µM (CSNK1A1L; replicate 1, read-out: CSNK1A1L kinase occupancy, Replicate 1 (%)) was 9.24%, the receptor occupancy at 1 µM (CSNK1A1L; replicate 2, read-out: CSNK1A1L kinase occupancy, Replicate 2 (%)) was -0.08% and the receptor occupancy at 1 µM (FLT3; average, read-out: FLT3 kinase occupancy, Average (%)) was 7.12%. The receptor occupancy at 1 µM (FLT3; replicate 1, read-out: FLT3 kinase occupancy, Replicate 1 (%)) was -10.3%, the receptor occupancy at 1 µM (FLT3; replicate 2, read-out: FLT3 kinase occupancy, Replicate 2 (%)) was 24.6% and the receptor occupancy at 1 µM (STK11; average, read-out: STK11 kinase occupancy, Average (%)) was 5.85%. It also gave a receptor occupancy at 1 µM (STK11; replicate 1, read-out: STK11 kinase occupancy, Replicate 1 (%)) of 6.96%, a receptor occupancy at 1 µM (STK11; replicate 2, read-out: STK11 kinase occupancy, Replicate 2 (%)) of 4.74% and a receptor occupancy at 1 µM (TEK; average, read-out: TEK kinase occupancy, Average (%)) of 10.2%. For the same compound, the receptor occupancy at 1 µM (TEK; replicate 1, read-out: TEK kinase occupancy, Replicate 1 (%)) was 13.1%, the receptor occupancy at 1 µM (TEK; replicate 2, read-out: TEK kinase occupancy, Replicate 2 (%)) was 7.34% and the receptor occupancy at 1 µM (JAK2 (V617F); average, read-out: JAK2 (V617F) kinase occupancy, Average (%)) was 9.92%. For the same compound, the receptor occupancy at 1 µM (JAK2 (V617F); replicate 1, read-out: JAK2 (V617F) kinase occupancy, Replicate 1 (%)) was 31.4%, the receptor occupancy at 1 µM (JAK2 (V617F); replicate 2, read-out: JAK2 (V617F) kinase occupancy, Replicate 2 (%)) was -11.6% and the receptor occupancy at 1 µM (DYRK1A; average, read-out: DYRK1A kinase occupancy, Average (%)) was 6.5%. The receptor occupancy at 1 µM (DYRK1A; replicate 1, read-out: DYRK1A kinase occupancy, Replicate 1 (%)) was 8.58%, the receptor occupancy at 1 µM (DYRK1A; replicate 2, read-out: DYRK1A kinase occupancy, Replicate 2 (%)) was 4.42% and the receptor occupancy at 1 µM (PKMYT1; average, read-out: PKMYT1 kinase occupancy, Average (%)) was 4.17%. For the same compound, the receptor occupancy at 1 µM (PKMYT1; replicate 1, read-out: PKMYT1 kinase occupancy, Replicate 1 (%)) was 5.47%, the receptor occupancy at 1 µM (PKMYT1; replicate 2, read-out: PKMYT1 kinase occupancy, Replicate 2 (%)) was 2.88% and the receptor occupancy at 1 µM (ULK2; average, read-out: ULK2 kinase occupancy, Average (%)) was 4.48%. The receptor occupancy at 1 µM (ULK2; replicate 1, read-out: ULK2 kinase occupancy, Replicate 1 (%)) was -5.12%, the receptor occupancy at 1 µM (ULK2; replicate 2, read-out: ULK2 kinase occupancy, Replicate 2 (%)) was 14.1% and the receptor occupancy at 1 µM (ITK; average, read-out: ITK kinase occupancy, Average (%)) was 5.61%. The receptor occupancy at 1 µM (ITK; replicate 1, read-out: ITK kinase occupancy, Replicate 1 (%)) was 14.2%, the receptor occupancy at 1 µM (ITK; replicate 2, read-out: ITK kinase occupancy, Replicate 2 (%)) was -2.94% and the receptor occupancy at 1 µM (MAP3K19; average, read-out: MAP3K19 kinase occupancy, Average (%)) was 13.3%. The receptor occupancy at 1 µM (MAP3K19; replicate 1, read-out: MAP3K19 kinase occupancy, Replicate 1 (%)) was 53.3%, the receptor occupancy at 1 µM (MAP3K19; replicate 2, read-out: MAP3K19 kinase occupancy, Replicate 2 (%)) was -26.6% and the receptor occupancy at 1 µM (CDKL1; average, read-out: CDKL1 kinase occupancy, Average (%)) was 8.23%. The receptor occupancy at 1 µM (CDKL1; replicate 1, read-out: CDKL1 kinase occupancy, Replicate 1 (%)) was 2.8% and the receptor occupancy at 1 µM (CDKL1; replicate 2, read-out: CDKL1 kinase occupancy, Replicate 2 (%)) was 13.7%.
